Test results taken from patent publication US7851474B2, “Dipiperazinyl ketones and related analogues” (Neurogen Corporation, priority 2005, dated 2010).

Biological target: T1, chimeric human H3 receptor (Homo sapiens, UniProt Q9Y5N1, E19D)
T1 construct: made in house; host or cells: Sf9 insect cells (baculovirus infection); P2 membrane preparation
Assay: Chimeric human H3 receptor screening GTP binding assay (inhibition of histamine-stimulated GTP-gamma35S binding, Example 8)
Format: biochemical
Settings: 1 h; assay described in Example 8; symbol + in column headed Ki of Table II; read-out: percent inhibition of agonist-induced GTP-gammaS binding to H3
Experimental: This Example illustrates a representative screening assay for evaluating inhibition of histamine-stimulated GTP-gamma^35S binding. Such GTP binding activity can be used to identify H3 antagonists and inverse agonists. A compound analyzed in this assay is referred to herein as a “test compound,” and the initial identification of antagonists and inverse agonists is performed using a test compound concentration of 4 μM.
Four independent baculoviral stocks (one directing the expression of the chimeric human H3 receptor and three directing the expression of each of the three subunits of a heterotrimeric G-protein) are used to infect a culture of Sf9 cells as described above. P2 membranes are prepared as described above, and are resuspended by Dounce homogenization (tight pestle) in GTP binding assay buffer (50 mM Tris pH 7.4, 120 mM NaCl, 5 mM MgCl2, 2 mM EGTA, 1 mg/ml BSA, 0.2 mg/ml bacitracin, 0.02 mg/ml aprotinin, 0.01 mg/ml saponin, 10 μM GDP) and added to assay tubes at a concentration of 35 μg protein/reaction tube. Non-radiolabeled test compounds are added to separate reactions at a concentration of 4 μM along with 1 μM histamine (agonist). Reactions are initiated by the addition of 125 pM GTP-gamma^35S with a final assay volume of 0.20 ml.
After a 60-min incubation at room temperature, reactions are terminated by vacuum filtration over GF/C filters (pre-soaked in 50 mM Tris pH 7.4, 120 mM NaCl plus 0.1% BSA) followed by washing with ice-cold buffer (50 mM Tris pH 7.4, 120 mM NaCl). The amount of receptor-bound (and thereby membrane-bound) GTP-gamma^35S is determined by measuring the bound radioactivity, preferably by liquid scintillation spectrometry of the washed filters. Non-specific binding is determined using 10 uM GTP-gammaS and typically represents less than 5 percent of total binding. After subtraction of non-specific binding, data is expressed as percent inhibition of 1 μM histamine signal.
Neutral antagonists are those test compounds that reduce the histamine-stimulated GTP binding activity towards, but not below, baseline levels. In contrast, in the absence of added histamine, inverse agonists reduce the GTP binding activity of the receptor-containing membranes below baseline. Any test compound that elevates GTP binding activity above baseline in the absence of added histamine in this assay is defined as having agonist activity.

T1 sequence (Q9Y5N1 with tags, fused parts or gaps E19D): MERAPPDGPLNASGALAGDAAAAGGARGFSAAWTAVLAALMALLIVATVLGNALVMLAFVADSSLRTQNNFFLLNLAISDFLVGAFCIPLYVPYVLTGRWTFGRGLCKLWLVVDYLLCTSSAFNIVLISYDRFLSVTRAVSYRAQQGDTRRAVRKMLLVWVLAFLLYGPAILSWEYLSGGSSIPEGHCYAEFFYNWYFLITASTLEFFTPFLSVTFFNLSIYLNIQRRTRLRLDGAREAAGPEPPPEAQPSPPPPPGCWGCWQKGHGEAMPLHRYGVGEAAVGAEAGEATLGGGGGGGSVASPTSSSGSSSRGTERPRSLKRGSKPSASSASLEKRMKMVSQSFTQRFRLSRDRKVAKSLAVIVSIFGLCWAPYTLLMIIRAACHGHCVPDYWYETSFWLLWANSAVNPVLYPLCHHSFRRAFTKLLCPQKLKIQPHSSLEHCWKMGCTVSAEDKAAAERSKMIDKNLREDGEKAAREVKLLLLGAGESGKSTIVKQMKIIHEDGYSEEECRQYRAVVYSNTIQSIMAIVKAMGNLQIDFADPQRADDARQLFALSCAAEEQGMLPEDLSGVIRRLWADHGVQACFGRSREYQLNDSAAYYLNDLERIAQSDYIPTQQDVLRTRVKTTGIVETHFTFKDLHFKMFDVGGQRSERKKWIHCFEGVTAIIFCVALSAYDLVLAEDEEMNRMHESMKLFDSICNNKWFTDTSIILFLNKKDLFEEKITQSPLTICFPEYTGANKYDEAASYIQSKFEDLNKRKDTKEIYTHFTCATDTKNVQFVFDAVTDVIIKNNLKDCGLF

inhibition at 4 µM [%] | SMILES
> 90 | COc1cc(Br)c(/C=C/C(=O)N2CCN(CC(=O)N3CCN(C4CCC4)CC3)CC2)cc1OC [Compound 386, 1-[(2E)-3-(2-bromo-4,5-dimethoxyphenyl)prop-2-enoyl]-4-[2-(4-cyclobutylpiperazin-1-yl)-2-oxoethyl]piperazine]
> 90 | COc1ccc(/C=C/C(=O)N2CCN(CC(=O)N3CCN(C4CCC4)CC3)CC2)c(Cl)c1OC [Compound 387, 1-[(2E)-3-(2-chloro-3,4-dimethoxyphenyl)prop-2-enoyl]-4-[2-(4-cyclobutylpiperazin-1-yl)-2-oxoethyl]piperazine]
> 90 | O=C(/C=C/c1c(F)cccc1Cl)N1CCN(CC(=O)N2CCN(C3CCC3)CC2)CC1 [Compound 388, 1-[(2E)-3-(2-chloro-6-fluorophenyl)prop-2-enoyl]-4-[2-(4-cyclobutylpiperazin-1-yl)-2-oxoethyl]piperazine]
> 90 | O=C(/C=C/c1ccccc1Cl)N1CCN(CC(=O)N2CCN(C3CCC3)CC2)CC1 [Compound 389, 1-[(2E)-3-(2-chlorophenyl)prop-2-enoyl]-4-[2-(4-cyclobutylpiperazin-1-yl)-2-oxoethyl]piperazine]
> 90 | O=C(/C=C/c1cccc(Cl)c1)N1CCN(CC(=O)N2CCN(C3CCC3)CC2)CC1 [Compound 390, 1-[(2E)-3-(3-chlorophenyl)prop-2-enoyl]-4-[2-(4-cyclobutylpiperazin-1-yl)-2-oxoethyl]piperazine]
> 90 | O=C(/C=C/c1ccc(Cl)cc1)N1CCN(CC(=O)N2CCN(C3CCC3)CC2)CC1 [Compound 391, 1-[(2E)-3-(4-chlorophenyl)prop-2-enoyl]-4-[2-(4-cyclobutylpiperazin-1-yl)-2-oxoethyl]piperazine]
> 90 | CCOc1ccc(Br)cc1/C=C/C(=O)N1CCN(CC(=O)N2CCN(C3CCC3)CC2)CC1 [Compound 392, 1-[(2E)-3-(5-bromo-2-ethoxyphenyl)prop-2-enoyl]-4-[2-(4-cyclobutylpiperazin-1-yl)-2-oxoethyl]piperazine]
> 90 | COc1ccc(Br)cc1/C=C/C(=O)N1CCN(CC(=O)N2CCN(C3CCC3)CC2)CC1 [Compound 393, 1-[(2E)-3-(5-bromo-2-methoxyphenyl)prop-2-enoyl]-4-[2-(4-cyclobutylpiperazin-1-yl)-2-oxoethyl]piperazine]
> 90 | O=C(/C=C/c1ccc(-c2ccccc2)cc1)N1CCN(CC(=O)N2CCN(C3CCC3)CC2)CC1 [Compound 394, 1-[(2E)-3-biphenyl-4-ylprop-2-enoyl]-4-[2-(4-cyclobutylpiperazin-1-yl)-2-oxoethyl]piperazine]
> 90 | O=C(CN1CCN(C(=O)c2sccc2Br)CC1)N1CCN(C2CCC2)CC1 [Compound 395, 1-[(3-bromo-2-thienyl)carbonyl]-4-[2-(4-cyclobutylpiperazin-1-yl)-2-oxoethyl]piperazine]
> 90 | O=C(CN1CCN(C(=O)c2sc3ccccc3c2Cl)CC1)N1CCN(C2CCC2)CC1 [Compound 397, 1-[(3-chloro-1-benzothien-2-yl)carbonyl]-4-[2-(4-cyclobutylpiperazin-1-yl)-2-oxoethyl]piperazine]
> 90 | O=C(CN1CCN(C(=O)c2sccc2Cl)CC1)N1CCN(C2CCC2)CC1 [Compound 398, 1-[(3-chloro-2-thienyl)carbonyl]-4-[2-(4-cyclobutylpiperazin-1-yl)-2-oxoethyl]piperazine]
> 90 | Cn1nc(C(C)(C)C)cc1C(=O)N1CCN(CC(=O)N2CCN(C3CCC3)CC2)CC1 [Compound 401, 1-[(3-tert-butyl-1-methyl-1H-pyrazol-5-yl)carbonyl]-4-[2-(4-cyclobutylpiperazin-1-yl)-2-oxoethyl]piperazine]
> 90 | CCn1nc(C)c(Br)c1C(=O)N1CCN(CC(=O)N2CCN(C3CCC3)CC2)CC1 [Compound 402, 1-[(4-bromo-1-ethyl-3-methyl-1H-pyrazol-5-yl)carbonyl]-4-[2-(4-cyclobutylpiperazin-1-yl)-2-oxoethyl]piperazine]
> 90 | O=C(CN1CCN(C(=O)c2ccc(Br)s2)CC1)N1CCN(C2CCC2)CC1 [Compound 410, 1-[(5-bromo-2-thienyl)carbonyl]-4-[2-(4-cyclobutylpiperazin-1-yl)-2-oxoethyl]piperazine]
> 90 | O=C(CN1CCN(C(=O)c2cncc(Br)c2)CC1)N1CCN(C2CCC2)CC1 [Compound 411, 1-[(5-bromopyridin-3-yl)carbonyl]-4-[2-(4-cyclobutylpiperazin-1-yl)-2-oxoethyl]piperazine]
> 90 | CCCCc1ccc(C(=O)N2CCN(CC(=O)N3CCN(C4CCC4)CC3)CC2)nc1 [Compound 412, 1-[(5-butylpyridin-2-yl)carbonyl]-4-[2-(4-cyclobutylpiperazin-1-yl)-2-oxoethyl]piperazine]

SMILES | inhibition at 4 µM [%]
O=C(Cc1cccc(Br)c1)N1CCN(CC(=O)N2CCN(C3CCC3)CC2)CC1 [Compound 396, 1-[(3-bromophenyl)acetyl]-4-[2-(4-cyclobutylpiperazin-1-yl)-2-oxoethyl]piperazine] | > 90
O=C(COc1cccc(Cl)c1)N1CCN(CC(=O)N2CCN(C3CCC3)CC2)CC1 [Compound 399, 1-[(3-chlorophenoxy)acetyl]-4-[2-(4-cyclobutylpiperazin-1-yl)-2-oxoethyl]piperazine] | > 90
O=C(Cc1cccc(Cl)c1)N1CCN(CC(=O)N2CCN(C3CCC3)CC2)CC1 [Compound 400, 1-[(3-chlorophenyl)acetyl]-4-[2-(4-cyclobutylpiperazin-1-yl)-2-oxoethyl]piperazine] | > 90
O=C(Cc1ccc(Br)cc1)N1CCN(CC(=O)N2CCN(C3CCC3)CC2)CC1 [Compound 403, 1-[(4-bromophenyl)acetyl]-4-[2-(4-cyclobutylpiperazin-1-yl)-2-oxoethyl]piperazine] | > 90
COc1cc(Cl)ccc1OCC(=O)N1CCN(CC(=O)N2CCN(C3CCC3)CC2)CC1 [Compound 404, 1-[(4-chloro-2-methoxyphenoxy)acetyl]-4-[2-(4-cyclobutylpiperazin-1-yl)-2-oxoethyl]piperazine] | > 90
Cc1cc(Cl)ccc1OCC(=O)N1CCN(CC(=O)N2CCN(C3CCC3)CC2)CC1 [Compound 405, 1-[(4-chloro-2-methylphenoxy)acetyl]-4-[2-(4-cyclobutylpiperazin-1-yl)-2-oxoethyl]piperazine] | > 90
O=C(COc1ccc(Cl)cc1)N1CCN(CC(=O)N2CCN(C3CCC3)CC2)CC1 [Compound 406, 1-[(4-chlorophenoxy)acetyl]-4-[2-(4-cyclobutylpiperazin-1-yl)-2-oxoethyl]piperazine] | > 90
O=C(Cc1ccc(Cl)cc1)N1CCN(CC(=O)N2CCN(C3CCC3)CC2)CC1 [Compound 407, 1-[(4-chlorophenyl)acetyl]-4-[2-(4-cyclobutylpiperazin-1-yl)-2-oxoethyl]piperazine] | > 90
CC(C)(C)c1ccc(OCC(=O)N2CCN(CC(=O)N3CCN(C4CCC4)CC3)CC2)cc1 [Compound 408, 1-[(4-tert-butylphenoxy)acetyl]-4-[2-(4-cyclobutylpiperazin-1-yl)-2-oxoethyl]piperazine] | > 90
